Among the data in PubChem BioAssay AID1259407 (Chemical Carcinogenesis Research Information System (CCRIS), 2018) are mutagenic call values, retold here.

Activity calls are given as the source filed them. How the calls were made is not given here.

The data set concerns CCRIS mutagenicity, Ames/micronucleus/aberration tests. The data set can be described thus: CCRIS mutagenicity studies.
[1] abbreviates: Test System: AMES SALMONELLA TYPHIMURIUM, Strain/Indicator: TA100, Metabolic Activation: NONE, Method: PREINCUBATION
The mark [2] stands for this setting: Test System: AMES SALMONELLA TYPHIMURIUM, Strain/Indicator: TA1535, Metabolic Activation: NONE, Method: PREINCUBATION
The mark [3] stands for this setting: Test System: AMES SALMONELLA TYPHIMURIUM, Strain/Indicator: TA100, Metabolic Activation: NONE, Method: STANDARD PLATE.

With `Cc1ccc(N)cc1`, the mutagenic call is “inactive; negative” (Test System: AMES SALMONELLA TYPHIMURIUM, Strain/Indicator: TA97, Metabolic Activation: HAMSTER, LIVER, S-9, AROCLOR 1254 (10%), Method: PREINCUBATION); “inactive; negative” (Test System: AMES SALMONELLA TYPHIMURIUM, Strain/Indicator: TA97, Metabolic Activation: HAMSTER, LIVER, S-9, AROCLOR 1254 (30%), Method: PREINCUBATION); “inactive; negative” (Test System: AMES SALMONELLA TYPHIMURIUM, Strain/Indicator: TA97, Metabolic Activation: NONE, Method: PREINCUBATION); “inactive; negative” (Test System: AMES SALMONELLA TYPHIMURIUM, Strain/Indicator: TA97, Metabolic Activation: RAT, LIVER, S-9, AROCLOR 1254 (10%), Method: PREINCUBATION); “inactive; negative” (Test System: AMES SALMONELLA TYPHIMURIUM, Strain/Indicator: TA97, Metabolic Activation: RAT, LIVER, S-9, AROCLOR 1254 (30%), Method: PREINCUBATION); “inactive; negative” (Test System: AMES SALMONELLA TYPHIMURIUM, Strain/Indicator: TA98, Metabolic Activation: HAMSTER, LIVER, S-9, AROCLOR 1254 (10%), Method: PREINCUBATION). The mutagenic call by setting is: (Test System: AMES SALMONELLA TYPHIMURIUM, Strain/Indicator: TA98, Metabolic Activation: HAMSTER, LIVER, S-9, AROCLOR 1254 (30%), Method: PREINCUBATION) “inactive; negative”; (Test System: AMES SALMONELLA TYPHIMURIUM, Strain/Indicator: TA98, Metabolic Activation: HAMSTER, LIVER, S-9, SODIUM PHENOBARBITAL AND 5,6-BENZOFLAVONE, Method: PREINCUBATION) “inactive; negative”; (Test System: AMES SALMONELLA TYPHIMURIUM, Strain/Indicator: TA98, Metabolic Activation: NONE, Method: PREINCUBATION) “inactive; negative”; (Test System: AMES SALMONELLA TYPHIMURIUM, Strain/Indicator: TA98, Metabolic Activation: RAT LIVER S-9, PHENOBARBITAL AND BETA-NAPHTHOFLAVONE, Method: PREINCUBATION) “inactive; negative”; (Test System: AMES SALMONELLA TYPHIMURIUM, Strain/Indicator: TA98, Metabolic Activation: RAT, LIVER, S-9, AROCLOR 1254 (10%), Method: PREINCUBATION) “inactive; negative”; (Test System: AMES SALMONELLA TYPHIMURIUM, Strain/Indicator: TA98, Metabolic Activation: RAT, LIVER, S-9, AROCLOR 1254 (30%), Method: PREINCUBATION) “inactive; negative”. The mutagenic call (Test System: AMES SALMONELLA TYPHIMURIUM, Strain/Indicator: TA100, Metabolic Activation: HAMSTER, LIVER, S-9, AROCLOR 1254 (10%), Method: PREINCUBATION) was “inactive; negative”; the mutagenic call (Test System: AMES SALMONELLA TYPHIMURIUM, Strain/Indicator: TA100, Metabolic Activation: HAMSTER, LIVER, S-9, AROCLOR 1254 (30%), Method: PREINCUBATION) is “active; positive”; the mutagenic call (Test System: AMES SALMONELLA TYPHIMURIUM, Strain/Indicator: TA100, Metabolic Activation: HAMSTER, LIVER, S-9, SODIUM PHENOBARBITAL AND 5,6-BENZOFLAVONE, Method: PREINCUBATION) was “inactive; negative”; the mutagenic call under setting [1] was “inactive; negative”; the mutagenic call (Test System: AMES SALMONELLA TYPHIMURIUM, Strain/Indicator: TA100, Metabolic Activation: RAT LIVER S-9, PHENOBARBITAL AND BETA-NAPHTHOFLAVONE, Method: PREINCUBATION) is “inactive; negative”; the mutagenic call (Test System: AMES SALMONELLA TYPHIMURIUM, Strain/Indicator: TA100, Metabolic Activation: RAT, LIVER, S-9, AROCLOR 1254 (10%), Method: PREINCUBATION) is “inactive; negative”. Moreover, the mutagenic call is “inactive; negative” (Test System: AMES SALMONELLA TYPHIMURIUM, Strain/Indicator: TA100, Metabolic Activation: RAT, LIVER, S-9, AROCLOR 1254 (30%), Method: PREINCUBATION); “inactive; negative” (Test System: AMES SALMONELLA TYPHIMURIUM, Strain/Indicator: TA102, Metabolic Activation: HAMSTER, LIVER, S-9, SODIUM PHENOBARBITAL AND 5,6-BENZOFLAVONE, Method: PREINCUBATION); “inactive; negative” (Test System: AMES SALMONELLA TYPHIMURIUM, Strain/Indicator: TA102, Metabolic Activation: NONE, Method: PREINCUBATION); “inactive; negative” (Test System: AMES SALMONELLA TYPHIMURIUM, Strain/Indicator: TA104, Metabolic Activation: HAMSTER, LIVER, S-9, SODIUM PHENOBARBITAL AND 5,6-BENZOFLAVONE, Method: PREINCUBATION); “inactive; negative” (Test System: AMES SALMONELLA TYPHIMURIUM, Strain/Indicator: TA104, Metabolic Activation: NONE, Method: PREINCUBATION); “inactive; negative” (Test System: AMES SALMONELLA TYPHIMURIUM, Strain/Indicator: TA1535, Metabolic Activation: HAMSTER, LIVER, S-9, AROCLOR 1254 (10%), Method: PREINCUBATION). Also, the mutagenic call reads like this: (Test System: AMES SALMONELLA TYPHIMURIUM, Strain/Indicator: TA1535, Metabolic Activation: HAMSTER, LIVER, S-9, AROCLOR 1254 (30%), Method: PREINCUBATION) “inactive; negative”; (Test System: AMES SALMONELLA TYPHIMURIUM, Strain/Indicator: TA1535, Metabolic Activation: HAMSTER, LIVER, S-9, SODIUM PHENOBARBITAL AND 5,6-BENZOFLAVONE, Method: PREINCUBATION) “inactive; negative”; under setting [2], “inactive; negative”; (Test System: AMES SALMONELLA TYPHIMURIUM, Strain/Indicator: TA1535, Metabolic Activation: RAT LIVER S-9, PHENOBARBITAL AND BETA-NAPHTHOFLAVONE, Method: PREINCUBATION) “inactive; negative”; (Test System: AMES SALMONELLA TYPHIMURIUM, Strain/Indicator: TA1535, Metabolic Activation: RAT, LIVER, S-9, AROCLOR 1254 (10%), Method: PREINCUBATION) “inactive; negative”; (Test System: AMES SALMONELLA TYPHIMURIUM, Strain/Indicator: TA1535, Metabolic Activation: RAT, LIVER, S-9, AROCLOR 1254 (30%), Method: PREINCUBATION) “inactive; negative”. Further, the mutagenic call reads like this: (Test System: AMES SALMONELLA TYPHIMURIUM, Strain/Indicator: TA1537, Metabolic Activation: HAMSTER, LIVER, S-9, SODIUM PHENOBARBITAL AND 5,6-BENZOFLAVONE, Method: PREINCUBATION) “inactive; negative”; (Test System: AMES SALMONELLA TYPHIMURIUM, Strain/Indicator: TA1537, Metabolic Activation: NONE, Method: PREINCUBATION) “inactive; negative”; (Test System: AMES SALMONELLA TYPHIMURIUM, Strain/Indicator: TA1537, Metabolic Activation: RAT LIVER S-9, PHENOBARBITAL AND BETA-NAPHTHOFLAVONE, Method: PREINCUBATION) “inactive; negative”; (Test System: E. COLI, Strain/Indicator: WP2UVRA/PKM101, Metabolic Activation: HAMSTER, LIVER, S-9, SODIUM PHENOBARBITAL AND 5,6-BENZOFLAVONE, Method: PREINCUBATION) “inactive; negative”; (Test System: E. COLI, Strain/Indicator: WP2UVRA/PKM101, Metabolic Activation: NONE, Method: PREINCUBATION) “inactive; negative”; (Test System: E. COLI, Strain/Indicator: WP2UVRA, Metabolic Activation: HAMSTER, LIVER, S-9, SODIUM PHENOBARBITAL AND 5,6-BENZOFLAVONE, Method: PREINCUBATION) “inactive; negative”. Besides, the mutagenic call was “inactive; negative” (Test System: E. COLI, Strain/Indicator: WP2 UVRA, Metabolic Activation: NONE, Method: FLUCTUATION TEST); “inactive; negative” (Test System: E. COLI, Strain/Indicator: WP2UVRA, Metabolic Activation: NONE, Method: PREINCUBATION); “inactive; negative” (Test System: E.COLI, Strain/Indicator: WP2UVRA, Metabolic Activation: NONE, Method: PREINCUBATION); “inactive; negative” (Test System: E.COLI, Strain/Indicator: WP2UVRA, Metabolic Activation: RAT LIVER S-9, PHENOBARBITAL AND BETA-NAPHTHOFLAVONE, Method: PREINCUBATION).

`Cc1ccc(CCC2CO2)cc1` (stereo not given): the mutagenic call under setting [1] is “inactive; negative”; the mutagenic call under setting [3] was “active; positive”; the mutagenic call under setting [2] is “inactive; negative”; the mutagenic call (Test System: AMES SALMONELLA TYPHIMURIUM, Strain/Indicator: TA1535, Metabolic Activation: NONE, Method: STANDARD PLATE) was “active; positive”.

Turning to `CC(NCc1ccccc1)C(=O)NCc1ccccc1` (stereo not given), the mutagenic call under setting [3] was “inactive; negative”.
